The target in assay [1] is T1, human ACC2 (Homo sapiens, UniProt O00763).
T1 construct: made in house; host or cells: SF-9 insect cells, recombinant baculovirus BAC-ACC2(Nd)
Put plainly: ACC2 inhibitory activity (malachite green absorbance assay, recombinant ACC2(Nd)). Type of assay: biochemical. The method, then:
The ACC2 inhibitory activity of the compound of the present invention was evaluated by the following method.
Human ACC2 gene was cloned by PCR using human skeletal muscle cDNA library (Clontech) as a template, and Primer 1 and Primer 2 shown below. Primer 1 and Primer 2 were prepared by adding recognition sequence of restriction enzymes SalI and XbaI based on the information of the base sequence (Genbank Accession U89344) of human ACC2 gene.
PCR was performed using Pyrobest DNA polymerase (TAKARA BIO INC.). The obtained PCR product was cloned to pT7 Blue vector (Novagen) which was, after confirmation of the base sequence, digested with restriction enzymes SalI and XbaI. The obtained DNA fragment was inserted into pFAST-BacHTa (Invitrogen) digested with restriction enzymes SalI and XbaI to give expression plasmid ACC2/pFAST-BacHTa.
A plasmid for expression of ACC2 free of mitochondrial targeting sequence was prepared by PCR using the expression plasmid as a template, and Primer 3 and Primer 4 shown below.
PCR was performed using Pyrobest DNA polymerase (TAKARA BIO INC.). The obtained PCR product was cloned to pT7 Blue vector (Novagen) which was, after confirmation of the base sequence, digested with restriction enzymes SalI and AflII. The obtained DNA fragment was inserted into pFAST-BacHTa (Invitrogen) digested with restriction enzymes SalI and AflII to give expression plasmid ACC2mito7/pFAST-BacHTa.
Using the expression plasmid and BAC-TO-BAC Baculovirus Expression System (Invitrogen), virus stock BAC-ACC2 of recombinant Baculovirus (N terminal deletion (hereinafter Nd)) was prepared.
SF-9 cells (Invitrogen) were sown at 0.5×10^6 cells/mL to insect cell culture medium (2 L, Sf-900II SFM medium (Invitrogen) containing 10% fetal bovine serum (Trace), 50 mg/L gentamicin (Invitrogen) and 0.1% Pluronic F-68 (Invitrogen)), and shaking culture was performed using a Wave Bioreactor (Wave) under the conditions of 27° C., 20 rpm, rocking angle of 6° and oxygen concentration of 30%.
On day 4 of the culture, 3 L of an insect cell culture medium was added, the rocking angle was set to 8°, and the cells were further cultured. On day 5 of the culture, the recombinant Baculovirus BAC-ACC2(Nd) (100 mL) was added, 5 L of the insect cell culture medium was further added, the rocking angle was set to 11°, and the cells were cultured for 3 days. The culture medium was centrifuged at 1000×g for 10 min to give virus-infected cells. The infected cells were washed with phosphate buffered saline (Invitrogen) and centrifuged under the same conditions, and the obtained cells were cryopreserved at −80° C.
The cryopreserved cells were thawed in ice, suspended in 25 mM HEPES buffer (900 mL, pH 7.5) containing 10% Glycerol, 0.13 M NaCl, 1 mM EDTA, 25 mM sodium β-glycerophosphate, 1 mM sodium orthovanadate, added with Complete Protease Inhibitor (Boehringer). The obtained suspension was homogenized 3 times with a Polytron homogenizer (Kinematica) at 20,000 rpm for 30 seconds. The obtained cell disrupt solution was clarified by centrifugation at 31000×g for 60 min and filtrated using a 0.45 μm filter. The filtrate was passed through a column packed with Ni-NTA Super Flow Gel (QIAGEN, 60 mL) at a flow rate of about 5 mL/min. The column was washed with buffer A (50 mM HEPES containing 0.3M NaCl, pH 7.5), further washed with buffer A containing 20 mM Imidazole, and eluted with buffer A containing 100 mM Imidazole. The eluate was concentrated with Vivaspin 20 (Vivascience) having a molecular weight cut off of 30 K. The obtained concentrate was dialyzed against 50 mM HEPES (pH7.5) containing 10 mM MgCl2, 2 mM dithiothreitol, 10 mM tripotassium citrate and 0.3M NaCl. The dialysate was filtered through a 0.22 μm filter to give ACC2(Nd). The obtained ACC2(Nd) was cryopreserved at −80° C. […]

For assay [2], the target named is T2, human ACC1 (Homo sapiens, UniProt Q13085).
T2 construct: made in house; host or cells: SF-9 insect cells, recombinant baculovirus BAC-ACC1
Put plainly: ACC1 inhibitory activity (malachite green absorbance assay, recombinant enzyme). Type of assay: biochemical. The method, then:
The ACC1 inhibitory activity of the compound of the present invention was evaluated by the following method.
Human ACC1 gene was cloned by PCR using human liver cDNA library (Clontech) as a template, and Primer 1 and Primer 2 shown below. Primer 1 and Primer 2 were prepared by adding recognition sequence of restriction enzymes SalI and NotI based on the information of the base sequence (Genbank Accession U19822) of human ACC1 gene.
PCR was performed using Pyrobest DNA polymerase (TAKARA BIO INC.). The obtained PCR product was cloned to pT7 Blue vector (Novagen) which was, after confirmation of the base sequence, digested with restriction enzymes SalI and NotI. The obtained DNA fragment was inserted into pFAST-BacHTc (Invitrogen) digested with restriction enzymes SalI and NotI to give expression plasmid ACC1/pFAST-BacHTc.
Using the expression plasmid and BAC-TO-BAC Baculovirus Expression System (Invitrogen), virus stock BAC-ACC1 of recombinant Baculovirus was prepared.
SF-9 cells (Invitrogen) were sown at 1×10^6 cells/mL to insect cell culture medium (1 L, Sf-900II SFM medium (Invitrogen) containing 10% fetal bovine serum (Trace), 50 mg/L gentamicin (Invitrogen) and 0.1% Pluronic F-68 (Invitrogen)), and shaking culture was performed using a 2 L volume Erlenmeyer flask at 27° C., 100 rpm.
After culturing for 24 hr, the recombinant Baculovirus BAC-ACC1 (10 mL) was added, and the mixture was further cultured for 3 days. The culture medium was centrifuged at 1000×g for 5 min to give virus-infected cells. The infected cells were washed with phosphate buffered saline (Invitrogen) and centrifuged under the same conditions, and the obtained cells were cryopreserved at −80° C.
The cryopreserved cells were thawed in ice, suspended in 25 mM HEPES buffer (100 mL, pH 7.5) containing 10% Glycerol, 0.13 M NaCl, 1 mM EDTA, 25 mM sodium β-glycerophosphate, 1 mM sodium orthovanadate, added with Complete Protease Inhibitor (Boehringer). The obtained suspension was homogenized 3 times with a Polytron homogenizer (Kinematica) at 20,000 rpm for 30 seconds. The obtained cell disrupt solution was clarified by centrifugation at 185700×g for 50 min and filtrated using a 0.45 μm filter. The filtrate was passed through a column packed with Ni-NTA Super Flow Gel (QIAGEN, 12 mL) at a flow rate of about 5 mL/min. The column was washed with buffer A (50 mM HEPES containing 0.3M NaCl, pH 7.5), further washed with buffer A containing 20 mM Imidazole, and eluted with buffer A containing 100 mM Imidazole. The eluate was concentrated with Vivaspin 20 (Vivascience) having a molecular weight cut off of 30 K. The obtained concentrate was dialyzed using Sephadex G-25 (Amersham Bioscience K.K., 358 mL) equilibrated with 50 mM HEPES (pH7.5) containing 10 mM MgCl2, 2 mM dithiothreitol, 10 mM tripotassium citrate and 0.3M NaCl. The dialysate was concentrated with Vivaspin 20 (Vivascience) having a molecular weight cut off of 30 K and the concentrate was filtered through a 0.22 μm filter to give ACC1. The obtained ACC1 was cryopreserved at −80° C.
ACC1 (0.93 mg/ml) obtained in (2) above was diluted to a concentration of 8 μg/ml with an enzyme reaction buffer (50 mM HEPES (pH7.5), 10 mM MgCl2, 10 mM tripotassium citrate, 2 mM dithiothreitol, 0.75 mg/ml fatty acid free BSA), and added to each well of a 384 well assay plate (Nunc 265196) by 10 μl. […]

Where [3] appears, read: Experimental Example 4, same manner as Experimental Example 2, read-out: IC50 values (ACC2 inhibitory activity).
[4] abbreviates: Table 9, recombinant human ACC2(Nd), N terminal deletion, 30° C., absorbance 620 nm, read-out: IC50 (ACC2 inhibitory activity).
Where [5] appears, read: Experimental Example 3, same manner as Experimental Example 1, read-out: IC50 values (ACC1 inhibitory activity).
Setting [6] is: Table 8, recombinant human ACC1, 30° C., absorbance 620 nm, read-out: IC50 (ACC1 inhibitory activity).

pIC50: −log10 of the molar value. Like-named read-outs stand apart in the source and are kept apart here.

T1 sequence (O00763 117-2458 limits assumed): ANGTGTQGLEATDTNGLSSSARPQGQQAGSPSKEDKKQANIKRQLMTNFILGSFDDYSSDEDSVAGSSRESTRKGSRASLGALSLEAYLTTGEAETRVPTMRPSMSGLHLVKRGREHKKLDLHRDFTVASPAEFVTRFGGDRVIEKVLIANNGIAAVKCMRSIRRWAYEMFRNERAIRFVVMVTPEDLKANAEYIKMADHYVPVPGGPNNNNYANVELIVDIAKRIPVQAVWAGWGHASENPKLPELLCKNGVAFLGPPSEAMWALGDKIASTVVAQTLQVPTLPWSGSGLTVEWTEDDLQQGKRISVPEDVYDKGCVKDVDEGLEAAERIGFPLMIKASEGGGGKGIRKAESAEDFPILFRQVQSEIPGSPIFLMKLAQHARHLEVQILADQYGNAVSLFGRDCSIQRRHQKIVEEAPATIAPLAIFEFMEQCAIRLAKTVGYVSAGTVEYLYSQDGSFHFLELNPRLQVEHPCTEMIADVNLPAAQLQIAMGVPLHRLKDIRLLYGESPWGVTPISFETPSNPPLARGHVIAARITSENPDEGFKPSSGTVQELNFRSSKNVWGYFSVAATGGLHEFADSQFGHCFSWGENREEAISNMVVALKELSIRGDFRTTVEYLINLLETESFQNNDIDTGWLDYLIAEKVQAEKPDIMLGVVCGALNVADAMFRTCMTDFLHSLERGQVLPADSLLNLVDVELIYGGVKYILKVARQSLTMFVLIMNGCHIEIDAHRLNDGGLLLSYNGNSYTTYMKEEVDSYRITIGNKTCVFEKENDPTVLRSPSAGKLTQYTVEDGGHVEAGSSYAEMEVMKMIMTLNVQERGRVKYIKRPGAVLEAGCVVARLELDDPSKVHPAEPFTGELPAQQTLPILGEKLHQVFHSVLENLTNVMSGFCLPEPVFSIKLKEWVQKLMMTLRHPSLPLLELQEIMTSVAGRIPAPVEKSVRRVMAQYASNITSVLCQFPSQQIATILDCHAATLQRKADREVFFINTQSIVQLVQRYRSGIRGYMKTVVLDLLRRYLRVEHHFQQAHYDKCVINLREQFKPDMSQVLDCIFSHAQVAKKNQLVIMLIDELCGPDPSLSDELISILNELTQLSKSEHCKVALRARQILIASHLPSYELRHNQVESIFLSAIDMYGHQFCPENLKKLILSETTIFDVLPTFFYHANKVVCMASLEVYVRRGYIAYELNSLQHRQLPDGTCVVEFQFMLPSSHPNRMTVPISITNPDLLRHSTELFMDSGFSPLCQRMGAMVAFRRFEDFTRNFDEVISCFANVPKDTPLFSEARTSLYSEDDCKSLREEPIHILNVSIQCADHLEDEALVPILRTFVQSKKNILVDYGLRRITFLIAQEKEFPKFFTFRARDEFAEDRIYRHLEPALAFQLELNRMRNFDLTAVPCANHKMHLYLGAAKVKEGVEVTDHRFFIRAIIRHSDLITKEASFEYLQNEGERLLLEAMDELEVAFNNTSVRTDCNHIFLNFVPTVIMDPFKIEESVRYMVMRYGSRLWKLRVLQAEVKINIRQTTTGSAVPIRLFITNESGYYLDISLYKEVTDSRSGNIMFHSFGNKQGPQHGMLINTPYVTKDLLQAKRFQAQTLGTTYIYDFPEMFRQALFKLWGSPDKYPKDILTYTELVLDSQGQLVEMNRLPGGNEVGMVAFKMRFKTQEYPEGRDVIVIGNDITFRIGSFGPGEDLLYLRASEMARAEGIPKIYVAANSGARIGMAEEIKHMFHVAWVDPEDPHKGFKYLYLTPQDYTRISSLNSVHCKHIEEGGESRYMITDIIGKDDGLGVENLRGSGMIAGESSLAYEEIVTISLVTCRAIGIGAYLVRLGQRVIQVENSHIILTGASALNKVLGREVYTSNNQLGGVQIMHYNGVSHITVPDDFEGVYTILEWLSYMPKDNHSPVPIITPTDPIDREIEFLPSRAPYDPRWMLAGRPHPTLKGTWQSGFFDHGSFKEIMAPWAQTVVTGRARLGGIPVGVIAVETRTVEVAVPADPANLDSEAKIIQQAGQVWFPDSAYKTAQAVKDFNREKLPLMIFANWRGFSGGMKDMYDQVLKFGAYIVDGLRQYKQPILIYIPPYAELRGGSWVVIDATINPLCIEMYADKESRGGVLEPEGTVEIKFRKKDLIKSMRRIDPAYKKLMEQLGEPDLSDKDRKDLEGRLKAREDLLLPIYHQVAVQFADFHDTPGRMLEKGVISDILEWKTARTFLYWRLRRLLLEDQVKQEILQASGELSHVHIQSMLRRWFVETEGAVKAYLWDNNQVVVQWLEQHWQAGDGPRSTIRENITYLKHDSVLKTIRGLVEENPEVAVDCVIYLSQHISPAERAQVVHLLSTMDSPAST

With `CCNC(=O)Nc1sc(-c2ccc(C(=O)O)cc2)cc1C(=O)N1CCC(N2CCCC3(C2)CC(C)(C)OC3=O)CC1` (centres unmarked) [Example 190, 4-(4-{[4-(3,3-dimethyl-1-oxo-2-oxa-7-azaspiro[4.5]dec-7-yl)piperidin-1-yl]carbonyl}-5-[(ethylcarbamoyl)amino]-2-thienyl)benzoic acid], the pIC50 in assay [1] (setting [3]) is no less than 8.00; in assay [1] (setting [4]), 8.05; in assay [2] (setting [5]), no less than 7.00; in assay [2] (setting [6]), 7.10.

Turning to `CCN1C(=O)C2(CCCN(C3CCN(C(=O)c4c(NC(N)=O)sc5ccccc45)CC3)C2)N=C1C(C)C` (centres unmarked) [Example 357, N-(3-{[4-(3-ethyl-2-isopropyl-4-oxo-1,3,7-triazaspiro[4.5]dec-1-en-7-yl)piperidin-1-yl]carbonyl}-1-benzothien-2-yl)urea], the pIC50 in assay [2] (setting [5]) is no less than 7.00.

As for `CCNC(=O)Nc1sc2ccccc2c1C(=O)N1CCC(N2CCCC3(C2)OC(=O)N(CC)C3=O)CC1` (centres unmarked) [Example 327, N-ethyl-N′-(3-{[4-(3-ethyl-2,4-dioxo-1-oxa-3,7-diazaspiro[4.5]dec-7-yl)piperidin-1-yl]carbonyl}-1-benzothien-2-yl)urea], the pIC50 in assay [1] (setting [4]) is 7.72; in assay [2] (setting [6]), 6.70.

For `CCNC(=O)Nc1sc2c(c1C(=O)N1CCC(N3CCCC4(C3)OC(=O)N(C(C)(C)C)C4=O)CC1)CCCC2=O` (centres unmarked) [Example 420, N-(3-{[4-(3-tert-butyl-2,4-dioxo-1-oxa-3,7-diazaspiro[4.5]dec-7-yl)piperidin-1-yl]carbonyl}-7-oxo-4,5,6,7-tetrahydro-1-benzothien-2-yl)-N′-ethylurea], the values for the pIC50 in assay [1] (setting [3]) and in assay [2] (setting [5]) were no less than 8.00 and no less than 7.00, respectively.

For the compound `Cc1c(C(=O)OC(C)(C)C)sc(NC(N)=O)c1C(=O)N1CCC(N2CCCC3(C2)CC(C)(C)OC3=O)CC1` (centres unmarked) [Example 291, tert-butyl 5-[(aminocarbonyl)amino]-4-{[4-(3,3-dimethyl-1-oxo-2-oxa-7-azaspiro[4.5]dec-7-yl)piperidin-1-yl]carbonyl}-3-methylthiophene-2-carboxylate], the pIC50 in assay [2] (setting [5]) was no less than 7.00.

On to `CCNC(=O)Nc1sc2ccccc2c1C(=O)N1CCC(N2CCCC3(CC(=O)NC3=O)C2)CC1` (centres unmarked) [Example 311, N-(3-{[4-(1,3-dioxo-2,7-diazaspiro[4.5]dec-7-yl)piperidin-1-yl]carbonyl}-1-benzothien-2-yl)-W-ethylurea], for which the pIC50 in assay [1] (setting [4]) is 7.51; in assay [2] (setting [6]), 6.40.

On to `CCN1C(=O)CC2(CCCN(C3CCN(C(=O)c4c(NC(=O)NC)sc5ccccc45)CC3)C2)C1=O` (centres unmarked) [Example 363, N-(3-{[4-(2-ethyl-1,3-dioxo-2,7-diazaspiro[4.5]dec-7-yl)piperidin-1-yl]carbonyl}-1-benzothien-2-yl)-N′-methylurea], for which the pIC50 in assay [1] (setting [4]) was 7.25; in assay [2] (setting [6]), 6.47.

Regarding `CCNC(=O)Nc1sc2ccccc2c1C(=O)N1CCC(N2CCNC3(C2)CC(C)(C)OC3=O)CC1` (centres unmarked) [Example 184, 1-(3-{[4-(3,3-dimethyl-1-oxo-2-oxa-6,9-diazaspiro[4.5]dec-9-yl)piperidin-1-yl]carbonyl}-1-benzothien-2-yl)-3-ethylurea], in assay [2] (setting [5]), the pIC50 was no less than 7.00.

Regarding `CCNC(=O)Nc1sc2ccccc2c1C(=O)N1CCC(N2CCCC3(C2)OC(=O)N(C(C)(C)C)C3=O)CC1` (centres unmarked) [Example 350, N-(3-{[4-(3-tert-butyl-2,4-dioxo-1-oxa-3,7-diazaspiro[4.5]dec-7-yl)piperidin-1-yl]carbonyl}-1-benzothien-2-yl)-N′-ethylurea], in assay [2] (setting [5]), the pIC50 is no less than 7.00.

Take `CCNC(=O)Nc1sc2ccccc2c1C(=O)N1CCC(N2CCCC3(CC(C)N(CCO)C3=O)C2)CC1` (centres unmarked) [Example 187, 1-ethyl-3-[3-({4-[2-(2-hydroxyethyl)-3-methyl-1-oxo-2,7-diazaspiro[4.5]dec-7-yl]piperidin-1-yl}carbonyl)-1-benzothien-2-yl]urea]: the pIC50 in assay [2] (setting [5]) was no less than 7.00.

In the case of `CCNC(=O)Nc1sc2ccccc2c1C(=O)N1CCC(N2CCCC3(C2)N=C(CC)N(CC)C3=O)CC1` (centres unmarked) [Example 354, N-(3-{[4-(2,3-diethyl-4-oxo-1,3,7-triazaspiro[4.5]dec-1-en-7-yl)piperidin-1-yl]carbonyl}-1-benzothien-2-yl)-N′-ethylurea], in assay [2] (setting [5]), the pIC50 is no less than 7.00.

Turning to `CC1(C)CC2(CCCN(C3CCN(C(=O)c4c(NC(N)=O)sc5ccccc45)CC3)C2)C(=O)O1` (centres unmarked) [Example 290, N-(3-{[4-(3,3-dimethyl-1-oxo-2-oxa-7-azaspiro[4.5]dec-7-yl)piperidin-1-yl]carbonyl}-1-benzothien-2-yl)urea], in assay [2] (setting [5]), the pIC50 is no less than 7.00.

`CNC(=O)Nc1sc2ccccc2c1C(=O)N1CCC(N2CCCC3(C2)CC(C)(C)OC3=O)CC1` (centres unmarked) [Example 324, N-(3-{[4-(3,3-dimethyl-1-oxo-2-oxa-7-azaspiro[4.5]dec-7-yl)piperidin-1-yl]carbonyl}-1-benzothien-2-yl)-N′-methylurea]: in assay [2] (setting [5]), the pIC50 is no less than 7.00.

The pIC50 is −log10 of the IC50, conventionally taken in molar units.

Values taken from patent US20100160255A1, “SPIRO-CYCLIC COMPOUND” (Takeda Pharmaceutical Company Limited, priority 2005, published 2010).
